Assay results taken from patent US8618305B2, “Sorafenib dimethyl sulphoxide solvate” (Ranbaxy Laboratories Limited, priority 2010, dated 2013).
Read-outs that look alike come from different tables or passages of the source.

How the values were obtained:
[1] = Hygroscopicity of the solid; type: physicochemical; conditions: free-flowing solid

Hygroscopicity [1]: non-hygroscopic
Change on heating in a vacuum oven (about 4 hours, temperature range of about 45° C. up to 110° C.): No change was observed
Temperature up to which the solid is stable towards heating (under reduced pressure): ≤ 110 °C
Compound: CNC(=O)c1cc(Oc2ccc(NC(=O)Nc3ccc(Cl)c(C(F)(F)F)c3)cc2)ccn1 [Sorafenib dimethyl sulphoxide solvate, dimethyl sulphoxide solvate of 4-(4-{3-[-4-chloro-3-(trifluoromethyl)phenyl]ureido}phenoxy)-N^2-methylpyridine-2-carboxamide]
Change on heating in a vacuum oven (about 120° C. and about 135° C. for about 4 hours): Desolvation of sorafenib dimethyl sulphoxide solvate to sorafenib free base was observed
